Here are results for nine compounds from patent US20230233569A1 (Revolution Medicines, Inc., priority 2020, published 2023).

By IC50 is commonly meant the concentration at which inhibition is half-maximal.

Structures are written as SMILES. Read-outs that look alike come from different tables or passages of the source. Where only a bound is given, the exact number is not on record here.

For assay [1], the system named is Capan-1 (K-Ras G12V). Description: CellTiter-Glo cell viability assay, 5-day treatment. The format is cell-based. The conditions noted are these: Homo sapiens, CAPAN-1, 120 h. The method, boiled down:
(§1)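 Viability is read as luminescence on day 5 after direct compound addition to plated cells, following about 30 minutes' room-temperature equilibration. Each signal is scaled to mean DMSO as 100%.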

Assay [2] relates to NCI-H358 (K-Ras G12C). The assay is described as above. The format is cell-based. The settings on record: Homo sapiens, NCI-H358, 120 h, 5-day treatment; read-out: H358 Cell Viability assay data (K-Ras G12C, IC50). The method, boiled down: as §1
Assay [3] concerns the target KRAS G12C (Homo sapiens, UniProt P01116+P62937, G12C). Put plainly: Disruption of BRAF RBD interaction with Ras (FRET / MOA assay, with Cyclophilin A). The settings on record: read-out: KRAS G12C FRET data, IC50. The format is biochemical. The gist of the method:
(§2)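 Compound-driven ternary complex formation between nucleotide-loaded K-Ras and Cyclophilin A was measured as loss of BRAF RBD binding. Compounds (10-point 3-fold series, top 30 μM final) were incubated 3 h at 25 °C, then anti-His Eu-W1024 (10 nM) and anti-GST allophycocyanin (50 nM) added for 1.5 h. IC50 was taken from the TR-FRET ratio decrease versus DMSO.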

Assay [4] deals with KRAS G12D (Homo sapiens, UniProt P01116+P62937, G12D). Described as above. Format: biochemical. The settings on record: read-out: KRAS G12D FRET data, IC50. The gist of the method:
as §2

For assay [5], the target named is KRAS G12S (Homo sapiens, UniProt P01116+P62937, G12S). The description is as above. Format: biochemical. The settings on record: read-out: KRAS G12S FRET data, IC50. The gist of the method: as §2
KRAS G12S, sequence (P01116 1-169 isoform P01116-2 G12S limits assumed): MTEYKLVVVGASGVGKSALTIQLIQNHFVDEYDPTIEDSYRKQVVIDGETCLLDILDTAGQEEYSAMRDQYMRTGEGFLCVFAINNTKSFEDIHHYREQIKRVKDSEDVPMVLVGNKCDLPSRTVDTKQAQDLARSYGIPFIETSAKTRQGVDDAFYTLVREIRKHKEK
KRAS G12S, sequence (P62937 whole entry): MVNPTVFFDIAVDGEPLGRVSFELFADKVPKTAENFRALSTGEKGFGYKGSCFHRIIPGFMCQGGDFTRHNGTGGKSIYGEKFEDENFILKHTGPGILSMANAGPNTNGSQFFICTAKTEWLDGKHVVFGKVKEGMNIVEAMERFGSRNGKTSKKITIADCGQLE
The target of assay [6] is KRAS G12V (Homo sapiens, UniProt P01116+P62937, G12V). Described as above. The conditions noted are these: KRAS G12V; read-out: KRAS G12V FRET data IC50. Format: biochemical. The method, boiled down:
as §2

Assay [7] concerns the target KRAS G13C (Homo sapiens, UniProt P01116+P62937, G13C). The description is as above. The settings on record: read-out: KRAS G13C FRET data, IC50. Format: biochemical. The method, boiled down: as §2
The target of assay [8] is KRAS G13D (Homo sapiens, UniProt P01116+P62937, G13D). The description is as above. Format: biochemical. The settings on record: KRAS G13D; read-out: KRAS G13D FRET data IC50. The gist of the method:
as §2

Assay [9] concerns the target KRAS WT (Homo sapiens, UniProt P01116+P62937). Described as above. Format: biochemical. The settings on record: KRAS WT; read-out: KRAS WT FRET data IC50. The gist of the method:
as §2

In assay [10] the target is NRAS G12C (Homo sapiens, UniProt P01111+P62937, G12C). The description is as above. The settings on record: NRAS G12C; read-out: NRAS G12C FRET data IC50. Format: biochemical.
NRAS G12C, sequence (P01111 whole entry G12C): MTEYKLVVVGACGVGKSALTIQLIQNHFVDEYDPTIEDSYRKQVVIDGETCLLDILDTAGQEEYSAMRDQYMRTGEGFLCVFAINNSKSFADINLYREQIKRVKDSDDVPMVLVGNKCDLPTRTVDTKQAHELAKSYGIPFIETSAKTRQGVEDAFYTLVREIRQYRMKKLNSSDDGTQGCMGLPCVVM
NRAS G12C, sequence (P62937 whole entry): as the sequence (P62937 whole entry) above
Assay [11] has as its target KRAS Q61H (Homo sapiens, UniProt P01116+P62937, Q61H). Described as above. The format is biochemical. The settings on record: KRAS Q61H; read-out: KRAS Q61H FRET data IC50. The method, boiled down:
(§3)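 TR-FRET in 25 mM HEPES pH 7.3, 100 mM NaCl, 5 mM MgCl2, 0.1% BSA: 25 μM Cyclophilin A, 12.5 nM His6-Ras-GMPPNP, 50 nM GST-BRAF RBD with compound (10-point 3-fold series from 30 μM), 3 h at 25° C. Anti-His Eu/anti-GST APC added, 1.5 h more; IC50 from decreased FRET ratio versus DMSO.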

Assay [12] deals with NRAS Q61K (Homo sapiens, UniProt P01111+P62937, Q61K). The assay is described as above. Format: biochemical. The settings on record: NRAS Q61K; read-out: NRAS Q61K FRET data IC50. The gist of the method: as §3
NRAS Q61K, sequence (P01111 whole entry Q61K): as the sequence (P01111 whole entry G12C) above, with C12G, Q61K counted along it
NRAS Q61K, sequence (P62937 whole entry): as the sequence (P62937 whole entry) above
For assay [13], the target named is NRAS Q61R (Homo sapiens, UniProt P01111+P62937, Q61R). Described as above. Format: biochemical. The conditions noted are these: NRAS Q61R; read-out: NRAS Q61R FRET data IC50. The gist of the method: as §3
NRAS Q61R, sequence (P01111 whole entry Q61R): as the sequence (P01111 whole entry G12C) above, with C12G, Q61R counted along it
NRAS Q61R, sequence (P62937 whole entry): as the sequence (P62937 whole entry) above
Assay [14] addresses NRAS WT (Homo sapiens, UniProt P01111+P62937). The description is as above. The format is biochemical. The settings on record: NRAS WT; read-out: NRAS WT FRET data IC50. The method, boiled down: as §3
Where [15] appears, read: 5-day treatment, read-out: Capan-1 Cell Viability assay data (K-Ras G12V, IC50).
Setting [16] is: read-out: Capan-1 Cell Viability assay data (K-Ras G12V, IC50, uM).

KRAS G13D, sequence (P01116 1-169 isoform P01116-2 G13D limits assumed): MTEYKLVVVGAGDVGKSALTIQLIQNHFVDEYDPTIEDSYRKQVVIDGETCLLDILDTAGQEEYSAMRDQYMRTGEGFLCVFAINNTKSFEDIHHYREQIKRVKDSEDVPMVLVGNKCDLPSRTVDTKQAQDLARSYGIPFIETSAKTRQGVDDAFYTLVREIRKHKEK
KRAS G13D, sequence (P62937 whole entry): as the sequence (P62937 whole entry) above
KRAS G12C, sequence (P01116 1-169 isoform P01116-2 G12C): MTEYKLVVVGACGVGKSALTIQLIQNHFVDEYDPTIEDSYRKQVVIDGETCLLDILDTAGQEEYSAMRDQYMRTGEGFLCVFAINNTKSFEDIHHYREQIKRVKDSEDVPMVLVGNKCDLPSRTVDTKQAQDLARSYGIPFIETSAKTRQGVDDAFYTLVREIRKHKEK
KRAS G12C, sequence (P62937 whole entry): as the sequence (P62937 whole entry) above
NRAS WT, sequence (P01111 whole entry): as the sequence (P01111 whole entry G12C) above, with C12G counted along it
NRAS WT, sequence (P62937 whole entry): as the sequence (P62937 whole entry) above
KRAS G12V, sequence (P01116 1-169 isoform P01116-2 G12V limits assumed): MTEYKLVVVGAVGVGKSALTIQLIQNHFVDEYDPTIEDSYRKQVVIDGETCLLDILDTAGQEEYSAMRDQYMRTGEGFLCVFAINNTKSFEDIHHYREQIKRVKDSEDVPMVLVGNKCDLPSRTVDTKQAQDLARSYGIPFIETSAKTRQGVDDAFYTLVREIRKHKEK
KRAS G12V, sequence (P62937 whole entry): as the sequence (P62937 whole entry) above
KRAS WT, sequence (P01116 1-169 isoform P01116-2 limits assumed): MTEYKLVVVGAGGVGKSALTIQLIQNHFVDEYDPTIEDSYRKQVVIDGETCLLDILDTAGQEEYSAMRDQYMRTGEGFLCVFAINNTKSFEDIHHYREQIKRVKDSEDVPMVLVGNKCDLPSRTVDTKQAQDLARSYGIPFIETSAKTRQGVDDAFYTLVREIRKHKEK
KRAS WT, sequence (P62937 whole entry): as the sequence (P62937 whole entry) above
KRAS Q61H, sequence (P01116 1-169 isoform P01116-2 Q61H limits assumed): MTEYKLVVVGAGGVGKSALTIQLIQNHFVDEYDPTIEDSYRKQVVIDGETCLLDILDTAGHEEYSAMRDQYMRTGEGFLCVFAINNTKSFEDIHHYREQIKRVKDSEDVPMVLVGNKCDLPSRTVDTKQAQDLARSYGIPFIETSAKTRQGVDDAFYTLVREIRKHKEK
KRAS Q61H, sequence (P62937 whole entry): as the sequence (P62937 whole entry) above
KRAS G12D, sequence (P01116 1-169 isoform P01116-2 G12D limits assumed): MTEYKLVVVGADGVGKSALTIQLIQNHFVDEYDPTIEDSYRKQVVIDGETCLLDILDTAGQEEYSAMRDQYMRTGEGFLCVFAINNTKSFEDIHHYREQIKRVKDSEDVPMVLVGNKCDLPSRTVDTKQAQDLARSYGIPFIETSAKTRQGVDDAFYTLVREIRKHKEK
KRAS G12D, sequence (P62937 whole entry): as the sequence (P62937 whole entry) above
KRAS G13C, sequence (P01116 1-169 isoform P01116-2 G13C): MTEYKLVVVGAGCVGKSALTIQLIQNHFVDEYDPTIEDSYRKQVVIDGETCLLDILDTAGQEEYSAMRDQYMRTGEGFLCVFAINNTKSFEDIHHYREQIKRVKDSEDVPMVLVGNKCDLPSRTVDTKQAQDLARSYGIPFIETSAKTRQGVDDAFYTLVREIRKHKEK
KRAS G13C, sequence (P62937 whole entry): as the sequence (P62937 whole entry) above

As for `CCn1c(-c2cccnc2[C@H](C)OC)c2c3cc(ccc31)-c1cc(O)cc(c1)C[C@H](NC(=O)[C@H](C(C)C)N(C)C(=O)C1CCC(C3CCCO3)O1)C(=O)N1CCC[C@H](N1)C(=O)OCC(C)(C)C2` (stereo partly drawn) [Example A396], the IC50 was 0.1 to 1 µM in assay [1] (setting [15]); 0.1 to 1 µM in [2]; 0.01 to 0.1 µM in assay [3]; 0.1 to 1 µM in [4]; 0.01 to 0.1 µM in assay [5]; 0.01 to 0.1 µM in assay [6]. Further, the IC50 in assay [7], in assay [8], in assay [9], in [10], in [11] and in assay [12] was 0.01 to 0.1 µM each time. The IC50 in [13] and in assay [14] was 0.01 to 0.1 µM throughout.
Turning to `CCn1c(-c2cccnc2[C@H](C)OC)c2c3cc(ccc31)-c1csc(n1)C[C@H](NC(=O)[C@H](C(C)C)N(C)C(=O)N1CCC(C(=O)C(F)(F)F)CC1)C(=O)N1CCC[C@H](N1)C(=O)OCC(C)(C)C2` [Example A422], the concentration for half-maximal inhibition (IC50) in [1] (setting [15]) lay within 0.1 to 1 µM; in assay [2] it was 0.01 to 0.1 µM; in [3], 0.01 to 0.1 µM; in [4], 0.1 to 1 µM; in [5], 0.01 to 0.1 µM; in assay [6], 0.01 to 0.1 µM. For the same compound, the IC50 in assay [7] lay within 0.01 to 0.1 µM; in assay [8], 0.1 to 1 µM; in assay [9], 0.01 to 0.1 µM; in assay [10] it was 0.01 to 0.1 µM; in assay [11], 0.01 to 0.1 µM; in [12], 0.01 to 0.1 µM. Moreover, the IC50 in assay [13] and in [14] was 0.01 to 0.1 µM each time.
Turning to `CCn1c(-c2cc(N3CCN(C)CC3)cnc2[C@H](C)OC)c2c3cc(ccc31)-c1cc(O)cc(c1)C[C@H](NC(=O)[C@H](C1CCCC1)N(C)C(=O)[C@H]1OCC[C@H]1c1ccccc1)C(=O)N1CCC[C@H](N1)C(=O)OCC(C)(C)C2` [Example A423], the half-maximal inhibitory concentration (IC50) in assay [1] (setting [15]) lay in the range of 0.1 to 1 µM; in assay [2], 0.1 to 1 µM; in assay [3] it was 0.1 to 1 µM; in assay [4], 0.1 to 1 µM; in assay [5] it was 0.1 to 1 µM; in [6] it was 0.01 to 0.1 µM. The IC50 lay within 0.1 to 1 µM in assay [7]; 0.1 to 1 µM in assay [8]; 0.1 to 1 µM in [9]; 0.1 to 1 µM in assay [10]; 0.1 to 1 µM in assay [11]; 1 to 10 µM in [12]. For the same compound, the IC50 in [13] and in [14] was 0.1 to 1 µM in each case.
Regarding `CCn1c(-c2cccnc2[C@H](C)OC)c2c3cc(ccc31)-c1csc(n1)C[C@H](NC(=O)[C@H](C(C)C)N(C)C(=O)N1CCC3(CC1)CN(C)CCO3)C(=O)N1CCC[C@H](N1)C(=O)OCC(C)(C)C2` [Example A433], the IC50 in assay [1] (setting [15]) is 0.01 to 0.1 µM; in assay [2], 0.01 to 0.1 µM; in [3], 0.1 to 1 µM; in [4], 1 to 10 µM; in assay [5], 0.1 to 1 µM; in [6] it was 0.1 to 1 µM. Besides, the IC50 in assay [7], in [8], in assay [9], in [10], in assay [11] and in assay [12] was 0.1 to 1 µM each time. Also, the IC50 in assay [13] and in [14] was 0.1 to 1 µM in each case.
`CCn1c(-c2cccnc2[C@H](C)OC)c2c3cc(ccc31)-c1csc(n1)C[C@H](NC(=O)[C@H](C(C)C)N(C)C(=O)N1CC[C@]13CCCN(C)C3)C(=O)N1CCC[C@H](N1)C(=O)OCC(C)(C)C2` [Example A442]: the IC50 was 1 to 10 µM in assay [1] (setting [15]); 0.1 to 1 µM in assay [2]; 1 to 10 µM in assay [3]; 1 to 10 µM in [4]; 1 to 10 µM in assay [5]; 1 to 10 µM in assay [6]. The IC50 was 1 to 10 µM in assay [7]; 0.1 to 1 µM in assay [8]; 1 to 10 µM in assay [9]; 1 to 10 µM in assay [10]; 0.1 to 1 µM in [11]; 1 to 10 µM in assay [12]. The IC50 in assay [13] and in assay [14] was 1 to 10 µM in each case.
`CCn1c(-c2cccnc2[C@H](C)OC)c2c3cc(ccc31)-c1csc(n1)C[C@H](NC(=O)[C@H](C(C)C)N(C)C(=O)N(C)C1(COC)COC1)C(=O)N1CCC[C@H](N1)C(=O)OCC(C)(C)C2` [Example A455]: the IC50 in assay [1] (setting [15]) lay in the range of 0.1 to 1 µM; in assay [2], 0.1 to 1 µM; in assay [3], 0.1 to 1 µM; in assay [4] it was 1 to 10 µM; in assay [5], 0.1 to 1 µM; in assay [6] it was 1 to 10 µM. Moreover, the IC50 in assay [7] was in the range of 1 to 10 µM; in assay [8], 1 to 10 µM; in [9], 0.1 to 1 µM; in [10], 0.1 to 1 µM; in [11], 0.1 to 1 µM; in [12], 0.1 to 1 µM. The IC50 in [13] and in assay [14] was 0.1 to 1 µM each time.
On to `CCn1c(-c2cccnc2[C@H](C)OC)c2c3cc(ccc31)-c1csc(n1)C[C@H](NC(=O)[C@H](C(C)C)N(C)C(=O)N1CCN(C(=O)CCN(C)C)CC1)C(=O)N1CCC[C@H](N1)C(=O)OCC(C)(C)C2` [Example A459], for which the IC50 in assay [1] (setting [15]) was in the range of 0.1 to 1 µM; in assay [2], 0.01 to 0.1 µM; in assay [3] it was 0.01 to 0.1 µM; in assay [4] it was 0.1 to 1 µM; in [5], 0.01 to 0.1 µM; in assay [6], 0.1 to 1 µM. Further, the half-maximal inhibitory concentration (IC50) in assay [7], in [8], in assay [9], in [10], in [11] and in assay [12] was 0.01 to 0.1 µM throughout. Further, the IC50 in assay [13] and in assay [14] was 0.01 to 0.1 µM throughout.
As to `CCn1c(-c2cccnc2[C@H](C)OC)c2c3cc(ccc31)-c1csc(n1)C[C@H](NC(=O)[C@H](C(C)C)N(C)C(=O)[C@@H]1CCN(C)[C@@H]1c1ccccc1)C(=O)N1CCC[C@H](N1)C(=O)OCC(C)(C)C2` [Example A464], the IC50 in assay [1] (setting [16]), in [2], in assay [3], in [4], in [5] and in assay [6] was 1 to 10 µM throughout. The half-inhibitory concentration (IC50) in assay [7] is 1 to 10 µM; in [8] it was 1 to 10 µM; in assay [9], 1 to 10 µM; in assay [10], 1 to 10 µM; in assay [11], 0.1 to 1 µM; in assay [12], 1 to 10 µM. The IC50 in assay [13] and in [14] was 1 to 10 µM throughout.
For the compound `CCn1c(-c2cc(C3CCN(C)CC3)cnc2[C@H](C)OC)c2c3cc(ccc31)-c1csc(n1)C[C@H](NC(=O)[C@H](C(C)C)N(C)C(=O)N1CC(C3COC3)C1)C(=O)N1CCC[C@H](N1)C(=O)OCC(C)(C)C2` [Example A465], the IC50 in [1] (setting [16]) is under 0.01 µM; in assay [2], under 0.01 µM; in [3], 0.01 to 0.1 µM; in [4] it was 0.1 to 1 µM; in [5] it was 0.01 to 0.1 µM; in [6], 0.01 to 0.1 µM. The 50% inhibitory concentration (IC50) in assay [7] fell in the range of 0.01 to 0.1 µM; in assay [8], 0.1 to 1 µM; in assay [9], 0.01 to 0.1 µM; in [10], 0.01 to 0.1 µM; in [11], 0.01 to 0.1 µM; in assay [12], 0.01 to 0.1 µM. Moreover, the 50% inhibitory concentration (IC50) in [13] and in assay [14] was 0.01 to 0.1 µM throughout.
